The values that follow come from article PMC12311865, “In Vitro Evaluation of the Potential Interactions of Zearalenone-14-sulfate and Zearalenone-14-glucuronide with Human Cytochrome P450 Enzymes, Organic Anion Transporting Polypeptides, and ATP-Binding Cassette Multidrug Transporters” (ACS Omega, 2025).

A word on the IC50: it is the concentration needed to halve the response being measured.

Data set [1] deals with T1, OATP1B3 (Homo sapiens, UniProt Q9NPD5).
T1 construct: expressed in transfected cells; host or cells: A431
T1 sequence (Q9NPD5 1-702): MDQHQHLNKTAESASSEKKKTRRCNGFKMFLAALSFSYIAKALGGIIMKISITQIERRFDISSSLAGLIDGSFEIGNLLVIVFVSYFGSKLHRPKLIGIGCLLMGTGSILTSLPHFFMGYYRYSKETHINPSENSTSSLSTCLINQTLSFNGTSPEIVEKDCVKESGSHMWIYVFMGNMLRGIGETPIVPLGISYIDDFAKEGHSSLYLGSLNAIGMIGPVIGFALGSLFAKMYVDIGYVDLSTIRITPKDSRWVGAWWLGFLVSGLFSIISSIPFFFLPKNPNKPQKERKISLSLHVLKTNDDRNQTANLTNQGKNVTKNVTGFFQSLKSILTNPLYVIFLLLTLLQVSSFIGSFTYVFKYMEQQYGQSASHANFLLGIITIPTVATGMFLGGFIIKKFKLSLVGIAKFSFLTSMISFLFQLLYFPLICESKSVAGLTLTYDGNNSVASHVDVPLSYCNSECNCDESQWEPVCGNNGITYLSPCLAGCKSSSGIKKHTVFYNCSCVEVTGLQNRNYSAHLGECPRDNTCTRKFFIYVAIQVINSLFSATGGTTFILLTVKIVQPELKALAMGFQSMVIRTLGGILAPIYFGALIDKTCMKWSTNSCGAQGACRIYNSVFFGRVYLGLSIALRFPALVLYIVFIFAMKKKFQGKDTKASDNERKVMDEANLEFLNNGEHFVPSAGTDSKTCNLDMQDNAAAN
The data set can be described thus: OATP1B3-mediated pyranine uptake in overexpressing A431 cells. The format is cell-based. The method, then: The human epidermoid carcinoma cell (A431) overexpressing OATP1A2, OATP1B1, OATP1B3, or OATP2B1 transporters and their mock control cells were generated previously as described. , Cell culture was maintained in DMEM supplemented with 10% fetal bovine serum, 2 mM L-glutamine, 100 units/mL penicillin, and 100 μg/mL streptomycin at 37 °C and 5% CO2.
The inhibitory effects of mycotoxins (Z14S and Z14GA) were examined using indirect fluorescence assays, where pyranine and SR101 were used as fluorescent substrates. , A431 cells overexpressing OATP1A2, OATP1B1/3, or OATP2B1 and their mock-transfected controls were seeded at a density of 8 × 10^4 cells/well onto 96-well plates and incubated for 18–22 h prior to transport measurements. The next day, plated cells were washed three times with 200 μL of PBS (phosphate-buffered saline, pH 7.4) and preincubated with 50 μL of transport buffer (pH 5.5; 125 mM NaCl, 4.8 mM KCl, 1.2 mM CaCl2, 1.2 mM KH2PO4, 12 mM MgSO4, 25 mM MES, and 5.6 mM glucose) with or without increasing concentrations of the mycotoxins tested (0.001–20 μM) for 5 min at 37 °C. The transport inhibition measurements were initiated by adding 50 μL of transport buffer containing the proper fluorescent substrate SR101 (0.5 μM, OATP1A2) or pyranine (10 μM for OATP1B1 or 20 μM for OATP1B3 and OATP2B1). After 10 min (OATP1A2), 15 min (OATP1B1 and OATP2B1), or 30 min (OATP1B3) incubation, the transport was terminated by washing the cells three times with ice-cold PBS. […] Using an Enspire plate reader (PerkinElmer, Waltham, MA), the fluorescence was measured at excitation/emission wavelengths of 460/510 nm (pyranine) or 586/605 nm (SR101).
OATP-mediated transport was obtained by subtracting the activity of the mock control cells from the activity of the OATP-expressing cells. The transport activity (%) of the OATPs was calculated by comparing the fluorescence signal obtained in the absence of the compounds tested (set to 100%).

Data set [2] has as its target T2, OATP1A2 (Homo sapiens, UniProt P46721).
T2 construct: expressed in transfected cells; host or cells: A431
T2 sequence (P46721 1-670): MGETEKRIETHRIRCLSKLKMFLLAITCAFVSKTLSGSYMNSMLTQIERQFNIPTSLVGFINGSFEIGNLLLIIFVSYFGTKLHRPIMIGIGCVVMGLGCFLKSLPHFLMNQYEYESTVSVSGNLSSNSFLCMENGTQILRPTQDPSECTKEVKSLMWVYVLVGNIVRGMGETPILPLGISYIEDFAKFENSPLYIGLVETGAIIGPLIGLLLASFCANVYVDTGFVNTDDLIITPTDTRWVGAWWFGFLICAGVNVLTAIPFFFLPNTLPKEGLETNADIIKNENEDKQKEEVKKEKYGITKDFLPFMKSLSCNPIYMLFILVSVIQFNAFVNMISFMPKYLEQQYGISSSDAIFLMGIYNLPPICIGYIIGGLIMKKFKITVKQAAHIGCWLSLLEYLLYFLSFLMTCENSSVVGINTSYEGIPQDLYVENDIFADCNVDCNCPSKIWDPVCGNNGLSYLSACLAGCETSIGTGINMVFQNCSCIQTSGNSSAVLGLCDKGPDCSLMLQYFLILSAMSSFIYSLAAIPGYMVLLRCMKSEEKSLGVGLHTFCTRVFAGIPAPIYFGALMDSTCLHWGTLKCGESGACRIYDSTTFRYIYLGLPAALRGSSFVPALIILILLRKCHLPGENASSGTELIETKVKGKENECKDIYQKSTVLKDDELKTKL
Also on record: method as in earlier report. Particulars: same experimental model; ref earlier report; cited from earlier work.

Data set [3] addresses T3, CYP1A2 (Homo sapiens, UniProt P05177).
T3 sequence (P05177 1-516): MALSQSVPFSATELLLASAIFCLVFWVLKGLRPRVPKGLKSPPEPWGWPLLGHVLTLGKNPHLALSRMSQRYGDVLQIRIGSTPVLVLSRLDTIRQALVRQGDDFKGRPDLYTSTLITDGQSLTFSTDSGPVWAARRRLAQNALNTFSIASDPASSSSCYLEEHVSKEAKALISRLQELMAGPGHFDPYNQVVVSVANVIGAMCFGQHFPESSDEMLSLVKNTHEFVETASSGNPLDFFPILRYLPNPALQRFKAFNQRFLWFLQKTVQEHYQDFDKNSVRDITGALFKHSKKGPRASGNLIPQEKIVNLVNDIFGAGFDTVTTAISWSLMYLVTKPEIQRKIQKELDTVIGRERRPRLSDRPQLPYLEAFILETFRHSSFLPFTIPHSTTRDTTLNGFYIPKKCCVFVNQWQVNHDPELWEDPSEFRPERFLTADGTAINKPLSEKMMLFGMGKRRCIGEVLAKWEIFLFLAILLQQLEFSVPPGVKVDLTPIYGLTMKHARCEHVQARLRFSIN
Also on record: purchased Abcam ab211075; method as in our previous study. Particulars: ref our previous study; cited from earlier work.

The structures appear in SMILES notation. Where two headings read alike, the source gives them in different places.

In the case of `C[C@H]1CCCC(=O)CCC/C=C/c2cc(O[C@@H]3O[C@H](C(=O)O)[C@@H](O)[C@H](O)[C@H]3O)cc(O)c2C(=O)O1` [Z14GA, Zearalenone-14-glucuronide], the IC50 in data set [1] (pyranine 20 μM, 30 min, A431 cells, read-out: IC50 for OATP1B3) was above 20000 nM.
For `C[C@H]1CCCC(=O)CCC/C=C/c2cc(OS(=O)(=O)O)cc(O)c2C(=O)O1` [Z14S, zearalenone-14-sulfate], inhibition in data set [1] was half-maximal at 2300 nM (IC50). In addition, in data set [1] (20 μM, pyranine substrate, A431 cells), the “decrease in OATP1B3 transport activity” value is 80–100%.
Regarding `C[C@H]1CCCC(=O)CCC/C=C/c2cc(O)cc(O)c2C(=O)O1` [ZEN, Zearalenone], the values for the IC50 in data set [2] and in data set [3] were 2300 nM and 7800 nM, respectively.
